How the values were obtained:
[1] = molecular target: T1, proTNFα convertase enzyme (TACE) (Homo sapiens, UniProt P78536); experiment: partially purified isolated enzyme assay for proTNFα convertase (TACE) inhibition; assay type: biochemical; details: 10 μM of compound; enzyme from membranes of THP-1
T1 construct: a partially purified, isolated enzyme assay, the enzyme being obtained from the membranes of THP-1; endogenous in cells; host or cells: THP-1 cell membranes (partially purified)
Experimental: Recombinant human proMMP13 may be expressed and purified as described by Knauper et al. [V. Knauper et al., (1996) […] 271:1544-1550 (1996)]. […] Activity is determined by measuring the fluorescence at λex 328 nm and λem 393 nm. Percent inhibition is calculated as follows: % Inhibition is equal to the [Fluorescenceplus inhibitor−Fluorescencebackground] divided by the [Fluorescenceminus inhibitor−Fluorescencebackground].
The ability of the compounds to inhibit proTNFα convertase enzyme (TACE) may be assessed using a partially purified, isolated enzyme assay, the enzyme being obtained from the membranes of THP-1 as described by K. M. Mohler et al., (1994) Nature 370:218-220. The purified enzyme activity and inhibition thereof is determined by incubating the partially purified enzyme in the presence or absence of test compounds using the substrate 4′,5′-Dimethoxy-fluoresceinyl Ser.Pro.Leu.Ala.Gln.Ala.Val.Arg.Ser.Ser.Ser.Arg.Cys(4-(3-succinimid-1-yl)-fluorescein)-NH2 in assay buffer (50 mM Tris HCl, pH 7.4 containing 0.1% (w/v) Triton X-100 and 2 mM CaCl2), at 26° C. for 4 hours. The amount of inhibition is determined as for MMP13 except λex 485 nm and λem 538 nm were used. […]

T1 sequence (P78536 215-824): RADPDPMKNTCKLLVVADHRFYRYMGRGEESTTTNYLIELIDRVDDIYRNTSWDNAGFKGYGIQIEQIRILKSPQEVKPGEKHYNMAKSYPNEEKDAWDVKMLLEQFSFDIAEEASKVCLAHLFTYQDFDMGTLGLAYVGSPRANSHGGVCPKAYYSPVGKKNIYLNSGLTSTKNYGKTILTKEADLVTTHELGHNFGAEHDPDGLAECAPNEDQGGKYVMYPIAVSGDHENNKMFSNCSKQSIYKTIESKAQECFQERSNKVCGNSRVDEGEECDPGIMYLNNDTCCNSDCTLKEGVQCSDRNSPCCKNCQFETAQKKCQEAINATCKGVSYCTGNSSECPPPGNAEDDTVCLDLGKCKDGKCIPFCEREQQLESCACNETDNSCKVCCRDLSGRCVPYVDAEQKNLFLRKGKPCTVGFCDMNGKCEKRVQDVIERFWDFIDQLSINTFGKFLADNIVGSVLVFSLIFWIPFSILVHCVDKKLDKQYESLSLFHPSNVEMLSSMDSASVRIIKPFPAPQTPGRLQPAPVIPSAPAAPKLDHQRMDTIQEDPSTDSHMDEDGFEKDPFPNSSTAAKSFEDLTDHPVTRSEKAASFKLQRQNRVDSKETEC

inhibition at 10 µM [1]	melting point	SMILES
99%		Cc1ccc(COC2CCN(S(=O)(=O)CC(c3cccnc3)N(O)C=O)CC2)cc1C (racemic) [compound 42, (R/S)-2-({4-[(3,4-dimethylbenzyl)oxy]piperidin-1-yl}sulphonyl)-1-pyridin-3-ylethyl(hydroxy)formamide]
97%		O=CN(O)C(CS(=O)(=O)N1CCC(OCc2cccc(F)c2)CC1)c1ccccc1 (racemic) [compound 25, (R/S)-2-({4-[(3-fluorobenzyl)oxy]piperidin-1-yl}sulphonyl)-1-phenylethyl(hydroxy)formamide]
	184.7 °C	Cc1cc(COC2CCN(S(=O)(=O)CC(C)C(=O)NO)CC2)c2ccccc2n1 (racemic) [Example 12, (R/S)-2-Methyl-3-({4-[(2-methylquinolin-4-yl)methoxy]piperidin-1-yl}sulphonyl)propionic hydroxamic acid]
